Data from ChEMBL document CHEMBL1125808, “Studies on the macrocyclic part of the trichothecene satratoxin: partial synthesis and structure-activity relationship” (Bioorg Med Chem Lett, 1991).

Legend:
Daudi = test: Concentration of compound to inhibit half of cell growth in malignant human lymphocytes: Daudi lymphoma cells; format: functional, cell-based; design: unit not given here
Mus musculus [1] = organism: Mus musculus; test: Cytotoxicity was evaluated on mice spleen lymphocytes stimulated by Phaseolus Vulgaris Phytohemagglutininin (PHA) after 48 hours; format: functional; design: unit not given here
Mus musculus [2] = organism: Mus musculus; test: Cytotoxicity was evaluated on mice spleen lymphocytes stimulated by Phaseolus Vulgaris Phytohemagglutininin (PHA) after 72 hours; format: functional; design: unit not given here
Mus musculus [3] = organism: Mus musculus; test: Cytotoxicity of compound was evaluated on mice spleen lymphocytes stimulated by Phaseolus Vulgaris Phytohemagglutininin (PHA) after 48 hours; format: functional

Compound | IC50 (Daudi) | IC50 (Mus musculus [1]) | IC50 (Mus musculus [2]) | IC50 (Mus musculus [3]) [M ml-1]
COC(=O)CC(O)[C@H]1OCC/C(=C\COCc2ccccc2)C1O[Si](C)(C)C(C)(C)C (stereo not given in full) | 10 | 20 | 20 | –
CCOC(=O)/C=C/C=C/[C@H]1OCC/C(=C\C(=O)OCC)[C@@H]1O[Si](C)(C)C(C)(C)C | 2.2 | 0.73 | 1.1 | –
CCOC(=O)/C=C/[C@H]1OCC/C(=C\COCc2ccccc2)[C@@H]1O[Si](C)(C)C(C)(C)C | 0.6 | 0.7 | 1.4 | –
CCOC(=O)/C=C/[C@H]1OCC/C(=C\C(=O)OCC)[C@@H]1O[Si](C)(C)C(C)(C)C | 9.3 | – | 17.6 | 8.8
O=C1CC(O)[C@H]2OCC/C(=C\COCc3ccccc3)C2O1 (stereo not given in full) | 3.5 | 8.8 | 13 | –
